Reference: US11498920B2, “4-(1H-imidazol-5-yl)-1H-pyrrolo[2, 3-b] pyridines for use in the treatment of leukaemias, lymphomas and solid tumors” (MASARYKOVA UNIVERZITA, priority 2018, dated 2022)

Tests used:
HEPG2 = test: Cytotoxicity on panel of cell lines, TMRE viability (Example II.2); type: cell-based; conditions: Homo sapiens, 24 hours, mean, control = 1, read-out: cell viability relative to control, HEPG2 (hepatocellular carcinoma)
Method: (§1) The leukemia and lymphoma-derived cell lines [MEC-1 cell line (derived from chronic lymphocytic leukemia—CLL), Nalm-16 (acute lymphocytic leukemia—ALL), K562 (chronic myeloid leukemia—CML), HL-60 (acute myeloid leukemia—AML), Maver-1 and Mino (mantle cell lymphoma—MCL), BL-41 (Burkitt lymphoma—BL), WSU-NHL (follicular lymphoma—FL), SUDHL (diffuse large B-cell lymphoma—DLBCL)], primary CLL cells and nonmalignant control primary cells were cultured in suspension in flasks under the following conditions: RPMI 1640 medium (Hyclone) supplemented with 10% fetal bovine serum (FBS, Gibco) and 1% penicillin/streptomycin (Life Technologies), 37° C., 5% CO2 and 95% relative humidity, with optimal culture cell density 5×10^6 cells/mL in case of primary cells and 0.5-1×10^6 cells/mL in case of cell lines. The adherent cell lines [A375 (derived from malignant melanoma), MDA-MB-231 and MCF-7 (breast cancer), MIA-PA-CA and PANC1 (pancreatic cancer), PC3 (prostate cancer), OVCAR4 (ovarian cancer) and HEPG2 (hepatocellular carcinoma)] were cultured on plates under the same conditions using RPMI1640 or DMEM medium (Gibco) according to instructions provided by the distributor (DSMZ/ATCC).
(§2) The tested cell lines were incubated with inhibitors at 30 μM concentration or corresponding amount of solvent (DMSO, Sigma Aldrich) in standard culture conditions, seeded as 10^5 cells/500 μl per well in a 24-well plate. Experiments were performed in technical duplicates and 2-3 biological repetitions per cell line. Viability of cells was assessed after 24 hours.
(§3) Relative values are presented as a mean value, showing ratio to the effect of control. Relative value <1=lower viability than control condition.

Maver1 = test: as above; type: cell-based; conditions: Homo sapiens, 24 hours, mean, control = 1, read-out: cell viability relative to control, Maver1 (MCL)
Method: as §1, §2, §3

OVCAR4 = test: as above; type: cell-based; conditions: Homo sapiens, OVCAR-4, 24 hours, mean, control = 1, read-out: cell viability relative to control, OVCAR4 (ovarian cancer)
Method: as §1, §2, §3

primary CLL cells = test: Cytotoxicity, TMRE flow cytometry viability, primary CLL cells (Example II.1); type: cell-based; conditions: Homo sapiens, CLL cell, 6 hours, TMRE positive cells normalized to control, ratio to PF670462, <1 = higher cytotoxicity than PF670462, read-out: Viability of cells, Compound of formula I (100 μM), relative to PF670462 (100 μM), CLL primary cells
[1] = Pharmacokinetic study, oral dosing, plasma concentration by LC-MS/MS (Example II.5); type: in vivo; conditions: mouse, male Balb/c mice, oral 20 mg/kg as dihydrochloride in saline, free base quantified, below LLOQ designated zero; for concentration at 15 min: read-out: conc. at 15 min; for concentration at 30 min: read-out: conc. at 30 min; for concentration at 60 min: read-out: conc. at 60 min; for concentration at 120 min: read-out: conc. at 120 min; for concentration at 240 min: read-out: conc. at 240 min; for concentration at 600 min: read-out: conc. at 600 min
Method: Male Balb/c mice (10-12 weeks old, body weight 24.1 to 30.8 g and average body weight across all groups 26.8 g, SD=1.7 g) were used in this study. The animals were randomly assigned to the treatment groups before the pharmacokinetic study; all animals were fasted for 4 h before dosing. The time points indicated in Table 4 were set for this pharmacokinetic study. Each of the time point treatment group included 4 animals. There was also control group of 2 animals. The compounds were dosed orally as the corresponding dihydrochlorides dissolved in physiological saline (c=3-4 mg/mL) at the dose of 20 mg/kg.
Mice were injected IP with 2,2,2-tribromoethanol at the dose of 150 mg/kg prior to drawing the blood. Blood collection was performed from the orbital sinus in microtainers containing K2EDTA. Animals were sacrificed by cervical dislocation after the blood samples collection. All samples were immediately processed, flash-frozen and stored at −70° C. until subsequent analysis.
Plasma samples (50 μL) were mixed with 200 μL of internal standard solution. After mixing by pipetting and centrifuging for 4 min at 6,000 rpm, 0.5 μL of each supernatant was injected into LC-MS/MS system.
The analyzed compound (as a dihydrochloride salt) was dissolved in DMSO, and the resulting solution with concentration of 2 mg/mL was used for calibration standards preparation (stock solution). A series of calibration standards was prepared by consecutively dilution of stock compound solution with blank mouse plasma to a final concentration of 40 000, 20 000, 10 000, 5 000, 2 500, 1000, 500, 250, 100, 50, and 20 ng/mL. Standard plasma samples (50 μL) were mixed with 200 μL of internal standard. After mixing by pipetting and centrifuging for 4 min at 6,000 rpm, 0.5 μL of each supernatant was injected into LC-MS/MS system. Signal corresponding to the free base was analyzed and quantified (Table 4).
The regression analysis of the analyzed compound was performed by plotting the peak area ratio (y-axis) against the compound concentration in calibration standards (x-axis, ng/mL).
The concentrations of the analyzed compound in plasma samples below the lower limit of quantitation (LLOQ—5 ng/mL to 20 ng/mL) were designated as zero.

[2] = system: Maver-1 cells (mantle cell lymphoma); test: Cytotoxicity, TMRE flow cytometry viability, Maver-1 cells (Example II.1); type: cell-based; conditions: Homo sapiens, Maver1, 24 hours, TMRE positive cells normalized to control, ratio to PF670462, <1 = higher cytotoxicity than PF670462, read-out: Viability of cells, Compound of formula I (100 μM), relative to PF670462 (100 μM), Maver-1 cells (mantle cell lymphoma)

concentration at 15 min [1]	concentration at 30 min [1]	concentration at 60 min [1]	concentration at 120 min [1]	concentration at 240 min [1]	concentration at 600 min [1]	Structure (SMILES)	viability at 30 µM (HEPG2)	viability at 30 µM (Maver1)	viability at 30 µM (OVCAR4)	viability at 100 µM (primary CLL cells)	viability at 100 µM [2]
–	–	–	–	–	–	Fc1ccc(-c2ncn(CC3CCCO3)c2-c2ccnc3[nH]ccc23)cc1 (stereo not drawn) [Preparative Example 27, 4-(4-(4-fluorophenyl)-1-((tetrahydrofuran-2-yl)methyl)-1H-imidazol-5-yl)-1H-pyrrolo[2,3-b]pyridine]	85%	78%	84%	–	–
1370 nM	260 nM	90 nM	40 nM	20 nM	0 nM	Fc1ccc(-c2ncn(Cc3cccnc3)c2-c2ccnc3[nH]ccc23)cc1 [Preparative Example 82, 4-(4-(4-fluorophenyl)-1-(pyridin-3-ylmethyl)-1H-imidazol-5-yl)-1H-pyrrolo[2,3-b]pyridine]	–	–	–	80%	–
9520 nM	6630 nM	4520 nM	790 nM	50 nM	0 nM	Cn1cnc(Cn2cnc(-c3ccc(F)cc3)c2-c2ccnc3[nH]ccc23)c1 [Preparative Example 92, 4-(4-(4-fluorophenyl)-1-((1-methyl-1H-imidazol-4-yl)methyl)-1H-imidazol-5-yl)-1H-pyrrolo[2,3-b]pyridine]	–	–	–	–	81%
440 nM	210 nM	180 nM	70 nM	0 nM	0 nM	Cn1ccc(Cn2cnc(-c3ccc(F)cc3)c2-c2ccnc3[nH]ccc23)n1 [Preparative Example 94]	–	–	–	–	81%
620 nM	720 nM	400 nM	530 nM	480 nM	0 nM	CN1CCC(Cn2cnc(-c3ccc(F)cc3)c2-c2ccnc3[nH]ccc23)CC1 [Preparative Example 102, 4-(4-(4-fluorophenyl)-1-((1-methylpiperidin-4-yl)methyl)-1H-imidazol-5-yl)-1H-pyrrolo[2,3-b]pyridine]	–	–	–	68%	69%
2170 nM	580 nM	130 nM	80 nM	40 nM	0 nM	Fc1ccc(-c2ncn(Cc3cocn3)c2-c2ccnc3[nH]ccc23)cc1 [Preparative Example 103, 4-((4-(4-fluorophenyl)-5-(1H-pyrrolo[2,3-b]pyridin-4-yl)-1H-imidazol-1-yl)methyl)oxazole]	–	–	–	–	–
4780 nM	2420 nM	2300 nM	430 nM	240 nM	0 nM	Cc1nnc(Cn2cnc(-c3ccc(F)cc3)c2-c2ccnc3[nH]ccc23)[nH]1 [Preparative Example 107, 4-(4-(4-fluorophenyl)-1-((5-methyl-4H-1,2,4-triazol-3-yl)methyl)-1H-imidazol-5-yl)-1H-pyrrolo[2,3-b]pyridine]	–	–	–	–	–
8010 nM	3530 nM	1030 nM	1120 nM	250 nM	0 nM	Cn1cc(Cn2cnc(-c3ccc(F)cc3)c2-c2ccnc3[nH]ccc23)nn1 [Preparative Example 113, 4-(4-(4-fluorophenyl)-1-((1-methyl-1H-1,2,3-triazol-4-yl)methyl)-1H-imidazol-5-yl)-1H-pyrrolo[2,3-b]pyridine]	–	–	–	–	–
2730 nM	730 nM	300 nM	160 nM	40 nM	0 nM	Cn1ccnc1Cn1cnc(-c2ccc(F)cc2)c1-c1ccnc2[nH]ccc12 [Preparative Example 122, 4-(4-(4-fluorophenyl)-1-((1-methyl-1H-imidazol-2-yl)methyl)-1H-imidazol-5-yl)-1H-pyrrolo[2,3-b]pyridine]	–	–	–	–	–
1350 nM	920 nM	520 nM	130 nM	0 nM	0 nM	CN(C)[C@H]1C[C@@H](n2cnc(-c3ccc(F)cc3)c2-c2ccnc3[nH]ccc23)C1 [Preparative Example 123, (1R,3s)-3-(4-(4-fluorophenyl)-5-(1H-pyrrolo[2,3-b]pyridin-4-yl)-1H-imidazol-1-yl)-N,N-dimethylcyclobutan-1-amine]	–	–	–	58%	78%
2380 nM	1830 nM	840 nM	760 nM	380 nM	0 nM	CN1CCC(F)(Cn2cnc(-c3ccc(F)cc3)c2-c2ccnc3[nH]ccc23)CC1 [Preparative Example 126, 4-(1-((4-fluoro-1-methylpiperidin-4-yl)methyl)-4-(4-fluorophenyl)-1H-imidazol-5-yl)-1H-pyrrolo[2,3-b]pyridine]	–	–	–	64%	71%
18900 nM	7240 nM	3980 nM	770 nM	410 nM	0 nM	Cn1nnc(Cn2cnc(-c3ccc(F)cc3)c2-c2ccnc3[nH]ccc23)n1 [Preparative Example 151]	–	–	–	–	–
13900 nM	8760 nM	7860 nM	2450 nM	520 nM	0 nM	Fc1ccc(-c2ncn(Cc3nc[nH]n3)c2-c2ccnc3[nH]ccc23)cc1 [Preparative Example 154, 4-(1-((1H-1,2,4-triazol-3-yl)methyl)-4-(4-fluorophenyl)-1H-imidazol-5-yl)-1H-pyrrolo[2,3-b]pyridine]	–	–	–	–	–
